Reference: patent US20230303540A1 (Merck Sharp & Dohme LLC, priority 2020, published 2023)

molecular target: GST-tagged truncated human mutant G2019S LRRK2 (Homo sapiens, UniProt Q5S007, G2019S); assay: LRRK2 G2019S Km ATP LanthaScreen assay; format: biochemical; settings: 134 μM ATP (Km ATP), LRRKtide substrate, mean IC50 values; read-out: LRRK2 pIC50 (converted)
Procedure: Unless otherwise noted, all reactions are magnetically stirred. Unless otherwise noted, when diethyl ether is used in the experiments described below, it is Fisher ACS certified material and is stabilized with BHT. Unless otherwise noted, “concentrated” and/or “solvent removed under reduced pressure” means evaporating the solvent from a solution or mixture using a rotary evaporator or vacuum pump. Unless otherwise noted, flash chromatography is carried out on a Teledyne Isco (Lincoln, NE), Analogix (Burlington, WI), or Biotage (Stockholm, SWE) automated chromatography system using a commercially available cartridge as the column. Columns may be purchased from Teledyne Isco, Analogix, Biotage, Varian (Palo Alto, CA), or Supelco (Bellefonte, PA) and are usually filled with silica gel as the stationary phase. Reverse phase prep-HPLC conditions, where used, can be found at the end of each experimental section. Aqueous solutions were concentrated on a Genevac (Ipswich, ENG) or by freeze-drying/lyophilization. Unless otherwise noted, all LRRK2 pIC50 data presented in tables refers to the LRRK2 G2019S Km ATP LanthaScreen™ assay (Life Technologies Corp., Carlsbad, CA) that is described in the Biological Assay section.
The IC50 values reported herein were measured as follows.
Biological Assay: LRRK2 Km ATP LanthaScreen™ Assay
The LRRK2 kinase activity reported herein as IC50 values was determined with LanthaScreen™ technology from Life Technologies Corporation (Carlsbad, CA) using GST-tagged truncated human mutant G2019S LRRK2 in the presence of the fluorescein-labeled peptide substrate LRRKtide, also from Life Technologies. The data presented for the Km ATP LanthaScreen™ Assay represents mean IC50 values based on several test results and may have reasonable deviations depending on the specific conditions and reagents used. Assays were performed in the presence of 134 μM ATP (Km ATP). Upon completion, the assay was stopped and phosphorylated substrate detected with a terbium (Tb)-labeled anti-pERM antibody (cat. no. PV4898). The compound dose response was prepared by diluting a 10 mM stock of compound to a maximum concentration of 9.99 μM in 100% dimethylsulfoxide followed by custom fold serial dilution in dimethylsulfoxide nine times. Twenty nanoliters of each dilution was spotted via a Labcyte Echo onto a 384-well black-sided plate (Corning 3575) followed by 15 μl of a 1.25 nM enzyme solution in 1× assay buffer (50 mM Tris pH 8.5, 10 mM MgCl2, 0.01% Brij-35, 1 mM EGTA, 2 mM dithiothreitol, 0.05 mM sodium orthovanadate). Following a 15-minute incubation at room temperature, the kinase reaction was started with the addition of 5 μl of 400 nM fluorescein-labeled LRRKtide peptide substrate and 134 μM ATP solution in 1× assay buffer. The reaction was allowed to progress at ambient temperature for 90 minutes. The reaction was then stopped by the addition of 20 μl of TR-FRET Dilution Buffer (Life Technologies, Carlsbad, CA) containing 2 nM Tb-labeled anti-phospho LRRKtide antibody and 10 mM EDTA (Life Technologies, Carlsbad, CA). After an incubation of 1 hour at room temperature, the plate was read on an EnVision multimode plate reader (Perkin Elmer, Waltham, MA) with an excitation wavelength of 337 nm (Laser) and a reading emission at both 520 and 495 nm. Compound IC50s were interpolated from nonlinear regression best fits of the log of the final compound concentration, plotted as a function of the 520/495-nm emission ratio using Activity base. Abase uses a 4 parameter (4P) logistic fit based on the Levenberg-Marquardt algorithm.

SMILES | IC50 [nM]
Cc1c(Nc2ncc3cc(Cl)c(N4CCC(C)(O)C(C)C4)cc3n2)cnn1C1CC1 (single isomer, unassigned) [Ex-3.48, (3R,4R) or (3S,4S) or (3R,4S) or (3S,4R) 1-{6-chloro-2-[(1-cyclopropyl-5-methyl-1H-pyrazol-4-yl)amino]quinazolin-7-yl}-3,4-dimethylpiperidin-4-ol] | 1.46
Cc1c(Nc2ncc3cc(Cl)c(N4CCC(C)(O)C(C)C4)cc3n2)cnn1C1CC1 (single isomer, unassigned) [Ex-3.49, (3R,4R) or (3S,4S) or (3R,4S) or (3S,4R) 1-{6-chloro-2-[(1-cyclopropyl-5-methyl-1H-pyrazol-4-yl)amino]quinazolin-7-yl}-3,4-dimethylpiperidin-4-ol] | 1.33
Cc1c(Nc2ncc3cc(Cl)c(N4CCC(C)(O)C(C)C4)cc3n2)cnn1C1CC1 (single isomer, unassigned) [Ex-3.50, (3R,4R) or (3S,4S) or (3R,4S) or (3S,4R) 1-{6-chloro-2-[(1-cyclopropyl-5-methyl-1H-pyrazol-4-yl)amino]quinazolin-7-yl}-3,4-dimethylpiperidin-4-ol] | 0.821
O[C@@H]1COC[C@@H]1N1CCN(c2cc3nc(Nc4cnn(C5CC5)c4Cl)ncc3cc2Cl)CC1 (single isomer, unassigned) [Ex-3.51, (3R,4R) or (3S,4S) 4-(4-{6-chloro-2-[(5-chloro-1-cyclopropyl-1H-pyrazol-4-yl)amino]quinazolin-7-yl}piperazin-1-yl)oxolan-3-ol] | 16.3
O[C@@H]1COC[C@@H]1N1CCN(c2cc3nc(Nc4cnn(C5CC5)c4Cl)ncc3cc2Cl)CC1 (single isomer, unassigned) [Ex-3.52, (3R,4R) or (3S,4S) 4-(4-{6-chloro-2-[(5-chloro-1-cyclopropyl-1H-pyrazol-4-yl)amino]quinazolin-7-yl}piperazin-1-yl)oxolan-3-ol] | 0.887
OC1COCC12CCN(c1cc3nc(Nc4cnn(C5CC5(F)F)c4Cl)ncc3cc1Cl)CC2 (single isomer, unassigned) [Ex-3.56] | 3.56
OC1COCC12CCN(c1cc3nc(Nc4cnn(C5CC5(F)F)c4Cl)ncc3cc1Cl)CC2 (single isomer, unassigned) [Ex-3.57] | 23.1
OC1COCC1N1CCN(c2cc3nc(Nc4cnn(C56CC(F)(C5)C6)c4Cl)ncc3cc2Cl)CC1 (single isomer, unassigned) [Ex-3.58, (3R,4R) or (3S,4S) 4-(4-(6-chloro-2-((5-chloro-1-(3-fluorobicyclo[1.1.1]pentan-1-y])-1H-pyrazol-4-yl)amino)quinazolin-7-yl)piperazin-1-yl) tetrahydrofuran-3-ol] | 0.44
CC1(N2CCN(c3cc4nc(Nc5cnn(C(F)F)c5Cl)ncc4cc3Cl)CC2)COCC1O (single isomer, unassigned) [Ex-3.59, (3R,4R) or (3S,4S) 4-(4-(6-chloro-2-((5-chloro-1-(difluoromethyl)-1H-pyrazol-4-yl)amino)quinazolin-7-yl)piperazin-1-yl)-4-methyltetrahydrofuran-3-ol] | 0.178
CC1(N2CCN(c3cc4nc(Nc5cnn(C6CC6(F)F)c5Cl)ncc4cc3Cl)CC2)CCOC1 (single isomer, unassigned) [Ex-3.60, (R or S) 6-chloro-N-(5-chloro-1-((S) or (R) 2,2-difluorocyclopropyl)-1H-pyrazol-4-yl)-7-(4-(3-methyltetra-hydrofuran-3-yl)piperazin-1-yl) quinazolin-2-amine] | 0.2
Cn1ncc(Nc2ncc3ccc(N4C(=O)C5CCC4C5)cc3n2)c1C(F)(F)F (single isomer, unassigned) [Ex-4.4, 2-(2-{[1-methyl-5-(trifluoromethyl)-1H-pyrazol-4-yl]amino}quinazolin-7-yl)-2-azabicyclo[2.2.1]heptan-3-one] | 24.6
Cn1ncc(Nc2ncc3ccc(N4C(=O)C5CCC4C5)cc3n2)c1C(F)(F)F (single isomer, unassigned) [Ex-4.5, 2-(2-{[1-methyl-5-(trifluoromethyl)-1H-pyrazol-4-yl]amino}quinazolin-7-yl)-2-azabicyclo[2.2.1]heptan-3-one] | 7.26
Cn1ncc(Nc2ncc3ccc(N4C(=O)C5CCC4C5)cc3n2)c1C(F)F (single isomer, unassigned) [Ex-4.6, 2-(2-{[5-(difluoromethyl)-1-methyl-1H-pyrazol-4-yl]amino}quinazolin-7-yl)-2-azabicyclo[2.2.1]heptan-3-one] | 34.9
Cn1ncc(Nc2ncc3ccc(N4C(=O)C5CCC4C5)cc3n2)c1C(F)F (single isomer, unassigned) [Ex-4.7, 2-(2-{[5-(difluoromethyl)-1-methyl-1H-pyrazol-4-yl]amino}quinazolin-7-yl)-2-azabicyclo[2.2.1]heptan-3-one] | 3.19
CC1CCC12CN(c1cc3nc(Nc4cnn(C5(C)CC5)c4Cl)ncc3cc1Cl)C2 (single isomer, unassigned) [Ex-4.25, (R) or (S) 6-chloro-N-[5-chloro-1-(1-methylcyclopropyl)-1H-pyrazol-4-yl]-7-(5-methyl-2-azaspiro[3.3]heptan-2-yl)quinazolin-2-amine] | 570
CC1CCC12CN(c1cc3nc(Nc4cnn(C5(C)CC5)c4Cl)ncc3cc1Cl)C2 (single isomer, unassigned) [Ex-4.26, (R) or (S) 6-chloro-N-[5-chloro-1-(1-methylcyclopropyl)-1H-pyrazol-4-yl]-7-(5-methyl-2-azaspiro[3.3]heptan-2-yl)quinazolin-2-amine] | 9.09
CC1(N2CCN(c3cc4nc(Nc5cnn(C6CC6(F)F)c5Cl)ncc4cc3Cl)CC2)COC1 (single isomer, unassigned) [Ex-4.60, 6-chloro-N-[5-chloro-1-(2,2-(R) or (S)difluorocyclopropyl)-1H-pyrazol-4-yl]-7-[4-(3-methyloxetan-3-yl)piperazin-1-yl]quinazolin-2-amine] | 3.24
CC1(N2CCN(c3cc4nc(Nc5cnn(C6CC6(F)F)c5Cl)ncc4cc3Cl)CC2)COC1 (single isomer, unassigned) [Ex-4.61, 6-chloro-N-[5-chloro-1-(2,2-(R) or (S)difluorocyclopropyl)-1H-pyrazol-4-yl]-7-[4-(3-methyloxetan-3-yl)piperazin-1-yl]quinazolin-2-amine] | 7.3
Cc1cc2cnc(Nc3cnn(C4CC4(F)F)c3Cl)nc2cc1N1CCN([C@H]2COC[C@H]2O)CC1 (single isomer, unassigned) [Ex-5.1, (3S, 4S) or (3R, 4R) 4-(4-(2-((5-Chloro-1-(2,2-(R) or (S)difluorocyclopropyl)-1H-pyrazol-4-yl)amino)-6-methylquinazolin-7-yl)piperazin-1-yl)tetrahydrofuran-3-ol] | 0.105
Cc1cc2cnc(Nc3cnn(C4CC4(F)F)c3C)nc2cc1N1CCN(C2COCC2O)CC1 (single isomer, unassigned) [Ex-5.2, (3S,4S) or (3R,4R) 4-(4-(2-((1-(2,2-(R) or (S)difluorocyclopropyl)-5-methyl-1H-pyrazol-4-yl)amino)-6-methylquinazolin-7-yl)piperazin-1-yl)tetrahydrofuran-3-ol] | 0.45
Cc1cc2cnc(Nc3cnn(C4CC4(F)F)c3C)nc2cc1N1CCN(C2(C)COCC2O)CC1 (single isomer, unassigned) [Ex-5.3, (3S,4S) or (3R,4R) 4-(4-(2-((1-(2,2-(R) or (S)difluorocyclopropyl)-5-methyl-1H-pyrazol-4-yl)amino)-6-methylquinazolin-7-yl)piperazin-1-yl)-4-methyltetrahydrofuran-3-ol] | 0.31
Cc1cc2cnc(Nc3cnn(C4CC4)c3C)nc2cc1N1CCN(C2(C)COCC2O)CC1 (single isomer, unassigned) [Ex-5.4, (3S,4S) or (3R,4R) 4-(4-(2-((1-cyclopropyl-5-methyl-1H-pyrazol-4-yl)amino)-6-methylquinazolin-7-yl)piperazin-1-yl)-4-methyltetrahydrofuran-3-ol] | 0.18
